From paper PMC7867085, “In Vitro and In Vivo Antitumor Activity of Indolo[2,3-b] Quinolines, Natural Product Analogs from Neocryptolepine Alkaloid” (Molecules, 2021) come the findings set out here.

The subject of one assay is EAC solid tumor. Nature of the assay: Histopathological examination of tumor sections (H and E). Type of assay: in vivo, mice. To be noted: for tumor section histopathology (necrosis): EAC bearing mouse, H and E × 200, Figure 3; for tumor cell death (histopathology): EAC solid tumor, compared with other molecules. As to the method:
Results of the treated group and that of the positive control group are illustrated in (Figure 3 and Figure 4). […] At the same time, the count of mitotic cells was less in the studied analogs 6a, 6b, 6c and 6d as measured up to that of the positive control group.
Each tumor or liver sample for each mouse was separated and kept in 10% formalin solution and dehydrated in a graded alcohol series. Each specimen was treated with xylene and then inserted in paraffin blocks. The specimen was cut into sections, the thickness of each section is five-micron, hematoxylin, and eosin (H and E) were added for staining. The stained liver specimen was used to assess the degree of degradation and necrosis using a reported scaling system; the scaling system use numbers from 0 to 3 to reflect necrosis severity. Starting from 0, which indicates no necrosis and moves to mild, moderate, and severe necrosis indicated by 1, 2, and 3, respectively. Mild and moderate stages are defined as focal and multifocal necrosis or degradation of hepatocytes, respectively, while severe is characterized by local immense, spread out necrosis or damaged liver cells. Tumor specimen stained with H and E were used to evaluate the severity and percentage of necrosis by the same previously mentioned scaling system.
H and E-stained slides of tumor specimens were used also used to calculate the H score as well as the mitosis counting and apoptotic tumor cell counting, ten arbitrarily chosen microscopic fields were used for each mitosis and apoptotic tumor cell counting, this was considered as examining at least 1000 tumor cells. High magnification (400×) was used for microscopic examination.

The test system of assay [1] is solid-tumor (EAC) bearing mice (liver homogenate). The experiment in a line: Lipid peroxidation and antioxidant enzymes in liver homogenate of solid-tumor bearing mice. Type of assay: in vivo, Swiss female albino mice. The note with it: 100 mg/kg for 5 days; for CAT / Lipid Peroxidation / SOD: liver. As to the method: Measuring antioxidant enzyme levels and lipid peroxidation was utilized to evaluate the pharmacological effect of indoloquinoline derivatives. The study group was divided into two subgroups, normal mice and tumor-bearing mice. Each subgroup is further subdivided into two groups, one group received indoloquinoline derivatives, and the other group was marked as a placebo group.
After administration of indoloquinoline analogs 6a, 6b, 6c and 6d at a dose of 100 mg/kg for 5 constitutive days to mice with EAC, the levels of lipid peroxidation were highly significant less than that of the positive control group (p < 0.001). Meanwhile, the level of SOD in the liver homogenate of positive bearing mice was 32.1% (p < 0.001) less than that of the normal group (Table 5).
The eradicated liver was double washed first, with ice-cold normal saline then, with cold 0.15 mol/L Tris-HCl buffer (pH 7.4). The clean organ was dried and weighed, and used to prepare a 10% w/v homogenate in 0.15 mol/L Tris-HCl buffer. A portion of the prepared homogenate was centrifuged at 1500 rpm for 15 min at 4 °C [47] and used for estimating lipid peroxidation, SOD [48] and CAT [49] analysis was carried out using the supernatant.

In assay [2] the test system is Ehrlich ascites carcinoma (EAC) cells. The experiment in a line: In vitro cytotoxic activity, trypan blue dye exclusion. Type of assay: cell-based, mice. The note with it: 3 h incubation at 37 °C. As to the method:
The synthesized indoloquinoline analogs 6a–d were evaluated for their cytotoxic activity against Ehrlich ascites carcinoma (EAC), as depicted in Table 1. The EAC cells used in this study were supplied by National Cancer Institute, Cairo, Egypt. The cells were maintained in vivo in Swiss Albino female mice by intraperitoneal transplantation (0.2 mL of 2 × 10^6 cells/mL). EAC cells were aspirated from the peritoneal cavity of mice, washed with saline and given intraperitoneally to develop ascites tumor. Trypan blue dye exclusion technique was used to figure the viability percentage of EAC cells to assay the cytotoxic activity of the studied compounds. In brief, under completely sterile conditions, EAC cells were separated away from the mice abdomens. Hank’s balanced salt solution (HBSS) was used to wash the separated cells. Cells were put in a cooling centrifuge at 1500 rpm for 15 min; the produced granules were put back into suspension using HBSS, the mentioned steps were done in triplicate. Finally, a measured volume of RPMI 1640 was used to suspend the cells, followed by the addition of 10% fetal bovine serum, 10 µg/mL streptomycin and 100 U/mL penicillin. Consequently, the cell count was adjusted to 2 × 10^6 cells/mL from the prepared diluted cell suspension 0.2 mL was titrated in 96 flat-bottomed tissue culture plates. Serial concentrations of each tested compound were prepared and added in triplicate and incubated at 37 °C for 3 h in a 5% CO2 atmosphere. The IC50 parameter (half-maximum inhibitory concentration) was calculated using Trypan blue dye exclusion test, and then the cytotoxic effect was evaluated using control EAC cells. Thalidomide was used as a reference drug alongside the parent natural compound neocryptolepine I for comparison. Thalidomide was used as a reference drug because its mechanism of action is expected to be similar to the mechanism of action of neocryptolepine analogs as its anticancer action may be based on its antiangiogenic action, resulting from specific DNA intercalation as well as induce cell cycle arrest.
The percentage of EAC cell death of the synthesized derivatives was evaluated by trypan blue exclusion assay. In addition, the compounds 6a–d, as well as the reference drug thalidomide and the parent natural compound neocryptolepine (I), were evaluated through eight concentration levels. It is worth noting that this cytotoxicity was dose-dependent when compared to the reference drug, thalidomide and the control, which was treated with the corresponding dilutions of DMSO.
As a preparation step to perform cytotoxicity assay against the EAC cell line, thalidomide, parent neocryptolepine and the indoloquinoline compounds a 6a, 6b, 6c and 6d were dissolved in DMSO/saline (0.3:0.7) to prepare a solution of 10 mmol concentration. The stock solutions were stored at 4 °C and were used all over the assay. EAC cells were supplied by the National Cancer Institute, Cairo, Egypt. The cells were maintained in vivo in Swiss albino female mice by intraperitoneal transplantation (0.2 mL of 2 × 10^6 cells/mL). EAC cells were aspirated from the peritoneal cavity of mice, washed with saline, and given intraperitoneally to develop ascites tumor.
Trypan blue dye exclusion technique was used to figure the viability percentage of EAC cells to assay the cytotoxic activity of the studied compounds. In brief, under completely sterile conditions, EAC cells were separated away from the mice’s abdomen. Hank’s balanced salt solution (HBSS) was used to wash the separated cells. The cells were put in a cooling centrifuge at 1500 rpm for 15 min; the produced granules were put back into suspension using HBSS, the mentioned steps were done in triplicate. Finally, a measured volume of RPMI 1640 was used to suspend the cells, followed by the addition of 10% fetal bovine serum, 10 µg/mL streptomycin and 100 U/mL penicillin and the cell count was adjusted to 2 × 10^6 cells/mL. […]

“Also recorded” adds a separate entry of the source.

Take `Cn1c2nc3ccccc3c-2c(NCCc2c[nH]c3ccccc23)c2ccccc21` [Compound 6b, N-(2-(1H-Indol-3-yl)ethyl)-5-methyl-5H-indolo[2,3-b] Quinolin-11-amine]: in the assay with EAC solid tumor, the “tumor section histopathology (necrosis)” value is “extensive necrosis (Ne) with minimal viable malignant cells”; the “tumor cell death (histopathology)” value was “supremely cell death percentage and apoptosis; also recorded: highest effect in tumor cell death without harming liver cells”. Besides, in assay [1], the “increase of CAT level against positive control” value (shortened to “increase of CAT level”) was determined as 78.04%, the “increase of SOD level in relation to positive control group” value (shortened to “increase of SOD level in relation”) is recorded as 53.69%, the CAT came to 7.3 ± 0.16 KU/mg Tissue/s and the “Lipid Peroxidation” value is on record as 268.9 ± 2.8 nmol MDA/g Tissue. This compound yielded an SOD in assay [1] of 146.06 ± 3.11 U/g Tissue. 64 pM corresponded to half-maximal inhibition in assay [2] (Mus musculus, Ehrlich) (IC50).
For the compound “5(5-Methyl-5H-indolo[2,3-b] quinolin-11-ylamino) Pyrimidine-2,4(1H,3H)-dione [Compound 6c]”, the “tumor section histopathology (necrosis)” value with EAC solid tumor is given as “massive area of coagulative necrosis (Ne) with viable tumor cells”. In addition, in assay [1], the “increase of CAT level” value stood at 107.3%, the “increase of SOD level in relation” value was determined as 36.24%, the CAT stood at 8.5 ± 0.34 KU/mg Tissue/s and the “Lipid Peroxidation” value is 262.1 ± 1.9 nmol MDA/g Tissue. The compound further displayed an SOD in assay [1] of 129.47 ± 1.38 U/g Tissue. Moreover, the IC50 (usually the midpoint of a concentration-inhibition curve) in assay [2] amounted to 330 pM.
Regarding `Cn1c2nc3ccccc3c-2c(Nc2ccc(Br)cc2F)c2ccccc21` [Compound 6a, N-(4-Bromo-2-fluorophenyl)-5-methyl-5H-indolo[2,3-b] Quinolin-11-amine], the “antimitotic effect (count of mitotic cells)” value in the assay on EAC solid tumor (EAC bearing mice, H and E) was “greatest antimitotic effect”. In addition, in the assay with EAC solid tumor, the “tumor section histopathology (necrosis)” value is recorded as “massive, coagulated necrosis (Ne) with minimal residual malignant cells”; the “tumor cell death (histopathology)” value is “supremely cell death percentage and apoptosis”. In assay [1], the “increase of CAT level” value is on record as 51.2%, the “increase of SOD level in relation” value turned out to be 54.4%, the CAT turned out to be 6.2 ± 0.14 KU/mg Tissue/s and the “Lipid Peroxidation” value was 249.3 ± 2.1 nmol MDA/g Tissue. The compound also gave an SOD in assay [1] of 146.75 ± 2.11 U/g Tissue. In assay [2] (Mus musculus, Ehrlich), this compound gave a 50% inhibitory concentration (IC50) of 170 pM.
For “5-Methyl-N-(4-methylpiperazin-1-yl)-5H-indolo[2,3-b] Quinolin-11-amine [Compound 6d]”, the “tumor section histopathology (necrosis)” value in the assay with EAC solid tumor was “massive geographic coagulative necrosis (Ne) surrounded by viable tumor cells”. Further, in assay [1], the “increase of CAT level” value is given as 65.8%, the “increase of SOD level in relation” value is 39.8%, the CAT is reported as 6.8 ± 0.12 KU/mg Tissue/s and the “Lipid Peroxidation” value amounted to 249.9 ± 2.2 nmol MDA/g Tissue. This compound came in with an SOD in assay [1] of 132.86 ± 0.55 U/g Tissue. In assay [2], this compound had an IC50 of 150 pM.
